Seven compounds from PubChem BioAssay (NCI) can be followed below.

Some test systems named below: PC-3 prostate; T-47D breast; MDA-MB-435; DU-145 prostate; SF-539 CNS; MDA-MB-231 breast; SNB-75 CNS; A498 renal; NCI/ADR-RES ovarian; SK-MEL-5 melanoma; MDA-N; MCF7 breast; HT29 colon; RXF-631 renal; NCI-H226 lung; LXFL 529 NSCLC; HOP-18 NSCLC; HOP-92 NSCLC; RXF 393 renal; BT-549 breast.
Holding throughout (experiment): NCI anticancer screen, dose series, 48 h

Molecules are shown by their SMILES.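 Protocol summary: plate cells (96-well), add compound at 5 concentrations, incubate 48 h, interpolate endpoints linearly. At the TGI there is no net growth.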 Some results are limits rather than exact numbers.

Turning to `COc1ccc(C(CC(=O)c2cccs2)C(=O)c2ccc3c(c2)OCO3)cc1` (stereo not given), the TGI with PC-3 prostate, with T-47D breast, in the assay with MDA-MB-435, with DU-145 prostate, in the assay on SF-539 CNS and with MDA-MB-231 breast was greater than 100 µM in each case. Further, the TGI in the assay on SNB-75 CNS, in the assay with A498 renal, in the assay with NCI/ADR-RES ovarian, in the assay on SK-MEL-5 melanoma, in the assay on MDA-N and in the assay on MCF7 breast was greater than 100 µM throughout.
`CC(NC(CC12CC3CC(CC(C3)C1)C2)C(N)=O)c1ccccc1` (stereo not given): the TGI with PC-3 prostate was greater than 100 µM; in the assay on T-47D breast, greater than 100 µM; in the assay on MDA-MB-435 it was 41.1 µM; in the assay on DU-145 prostate, greater than 100 µM; with MDA-MB-231 breast it was greater than 100 µM; in the assay with HT29 colon it was 48.1 µM. Besides, the TGI in the assay on A498 renal is 31.5 µM; in the assay on NCI/ADR-RES ovarian, 48 µM; with SK-MEL-5 melanoma it was 26.3 µM; in the assay with MDA-N, 75.6 µM; in the assay with MCF7 breast it was greater than 100 µM.
Turning to `CCCOC(=O)CCC(NC(=O)c1ccc(Nc2nc3ccccc3nc2-c2cccs2)cc1)C(=O)OCCC` (stereo not given), the TGI in the assay on RXF-631 renal, in the assay on SF-539 CNS, in the assay with NCI-H226 lung, in the assay on LXFL 529 NSCLC, in the assay with HOP-18 NSCLC and with SK-MEL-5 melanoma was greater than 100 µM in each case. In addition, the TGI in the assay on HOP-92 NSCLC and with RXF 393 renal was greater than 100 µM in each case.
With `CC/C(CC(=O)CCC(=O)Nc1ccc(C)c(C)c1)=N\NC(=O)c1cc2ccccc2cc1O`, the TGI with RXF-631 renal is greater than 100 µM; with NCI-H226 lung it was greater than 100 µM; in the assay on HT29 colon, greater than 100 µM; in the assay with LXFL 529 NSCLC, greater than 100 µM; with HOP-18 NSCLC, 88.1 µM; in the assay on HOP-92 NSCLC, 91.3 µM. In the assay on RXF 393 renal, this compound gave a TGI of 66.7 µM.
`O=C(OC1C#CCSCC#C/C=C\1)c1ccc2c(c1)C(=O)c1ccccc1C2=O` (stereo not given): the TGI in the assay on PC-3 prostate was greater than 100 µM; in the assay with T-47D breast it was greater than 100 µM; with MDA-MB-435, greater than 100 µM; with DU-145 prostate, greater than 100 µM; in the assay on SF-539 CNS, 40.7 µM; in the assay with MDA-MB-231 breast it was 82.4 µM. The TGI is greater than 100 µM in the assay with SNB-75 CNS; greater than 100 µM with NCI-H226 lung; greater than 100 µM in the assay with HT29 colon; 54.1 µM with BT-549 breast; greater than 100 µM in the assay with A498 renal; greater than 100 µM with NCI/ADR-RES ovarian. In addition, the TGI in the assay on SK-MEL-5 melanoma was greater than 100 µM; with HOP-92 NSCLC it was 13.7 µM; in the assay on MDA-N, greater than 100 µM; in the assay with RXF 393 renal, 47.1 µM; in the assay on MCF7 breast, greater than 100 µM.
On to `CN(C)CCCn1c(-c2ccc(Br)cc2)csc1=Nc1ccccc1`, for which the TGI in the assay with PC-3 prostate was 25.2 µM; in the assay with MDA-MB-435, 61.5 µM; in the assay with SF-539 CNS, 34 µM; with MDA-MB-231 breast it was greater than 100 µM; in the assay with SNB-75 CNS it was 29.8 µM; in the assay with NCI-H226 lung, 27.3 µM. The TGI was 31.6 µM in the assay on BT-549 breast; 28.3 µM in the assay on A498 renal; 35.7 µM in the assay with NCI/ADR-RES ovarian; greater than 100 µM in the assay with HOP-92 NSCLC; greater than 100 µM with MDA-N; 29.8 µM in the assay on RXF 393 renal. In the assay on MCF7 breast, the TGI was determined as 54 µM.
Take `Cc1c(CCCl)c(Cl)n2c(nc3ccccc32)c1C#N`: the TGI in the assay on RXF-631 renal came out at 2.18 µM; with PC-3 prostate, 2.4 µM; with MDA-MB-435, 2.22 µM; in the assay with DU-145 prostate, 4.56 µM; in the assay with SF-539 CNS it was 2.81 µM; in the assay with MDA-MB-231 breast it was 17.9 µM. Also, the TGI in the assay on SNB-75 CNS worked out at 14.1 µM; in the assay on NCI-H226 lung it was 2.93 µM; with HT29 colon it was 4.35 µM; in the assay on BT-549 breast it was 3.98 µM; in the assay with A498 renal it was 2.83 µM; in the assay with LXFL 529 NSCLC it was 1.63 µM. Besides, the TGI came out at 3.95 µM in the assay with HOP-18 NSCLC; 2.35 µM in the assay with SK-MEL-5 melanoma; 2.99 µM with HOP-92 NSCLC; 3 µM in the assay with RXF 393 renal; 5.28 µM with MCF7 breast.
